Source: the supplement of paper PMC7600603

How the values were obtained:
[1] = system: DLD1 NRF2-GOF; experiment: drug sensitivity score (DSS) viability (DSS score); higher = more sensitive; extreme values may be limits of the assay; settings: 72 h; CellTiter-Glo viability
Summary of the method: (§1)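 Isogenic DLD1 colorectal cancer cells, either NRF2 wild-type or CRISPR gain-of-function, were grown in DMEM with 10% FBS. They were exposed in 384-well plates to library compounds at 5 concentrations spanning a 10,000-fold range. After 72 h, viability was read by CellTiter-Glo on a Pherastar FS reader and normalised to vehicle wells and 100-μM positive-control wells. EC50 and drug sensitivity score (a normalised area under the curve) came from four-parameter logistic dose-response fits.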

[2] = system: DLD1 NRF2-WT; experiment: as above; settings: 72 h; CellTiter-Glo viability
Summary of the method: as §1

[3] = system: DLD1 NRF2-WT; experiment: TC50 cytotoxicity; higher = less toxic; settings: 72 h; CellTox Green cytotoxicity
Summary of the method: (§2)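 TC50 and drug sensitivity score, a normalised area under the curve, were derived by logistic dose-response fits of cytotoxicity. The cells were an isogenic DLD1 colorectal cancer pair, NRF2 wild-type or CRISPR-edited, kept in DMEM with 10% FBS. Compounds were tested in 384-well plates at 5 concentrations across a 10,000-fold range for 72 h. Readings with CellTox Green on a Pherastar FS reader were normalised to vehicle wells and 100-μM positive-control wells.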

[4] = system: DLD1 NRF2-GOF; settings: 72 h; CellTiter-Glo viability
Summary of the method: as §1

[5] = system: DLD1 NRF2-WT; settings: 72 h; CellTiter-Glo viability
Summary of the method: as §1

[6] = system: DLD1 NRF2-GOF; experiment: drug sensitivity score (DSS) cytotoxicity (DSS score); higher = more toxic; extreme values may be limits of the assay; settings: 72 h; CellTox Green cytotoxicity
Summary of the method: as §2

[7] = system: DLD1 NRF2-WT; experiment: as above; settings: 72 h; CellTox Green cytotoxicity
Summary of the method: as §2

[8] = system: DLD1 NRF2-GOF; experiment: TC50 cytotoxicity; higher = less toxic; settings: 72 h; CellTox Green cytotoxicity
Summary of the method: as §2

`CNC(=O)c1ccccc1Nc1nc(Nc2ccc3c(c2OC)CCC[C@H](N2CCN(CCO)CC2)C3)ncc1Cl` showed a drug sensitivity score [1] of 9.3, a drug sensitivity score [2] of 9.2 and a TC50 cytotoxicity [3] of 1.21 µM. For the same compound, the EC50 viability [4] was 0.45 µM, the EC50 viability [5] was 0.61 µM and the drug sensitivity score [6] was 1.8. The drug sensitivity score [7] was 3.

With `Cc1c(-c2c(-c3ccc(F)o3)sc3ncnc(O[C@H](Cc4ccccc4OCc4ccnn4CC(F)(F)F)C(=O)O)c23)ccc(OCCN2CCN(C)CC2)c1Cl` the drug sensitivity score [1] was 0, the drug sensitivity score [2] was 3.6 and the TC50 cytotoxicity [8] was over 1 µM. It also gave a TC50 cytotoxicity [3] of over 1 µM, an EC50 viability [4] of over 1 µM and a drug sensitivity score [6] of 0. For the same compound, the drug sensitivity score [7] was 0.

`Cc1ccc(C(=O)N(CCCN)[C@@H](c2oc3cc(Cl)ccc3c(=O)c2Cc2ccccc2)C(C)C)cc1` gave a drug sensitivity score [1] of 13.5, a drug sensitivity score [2] of 12.7 and a TC50 cytotoxicity [8] of over 0.1 µM. The EC50 viability [4] was 0.0031 µM, the EC50 viability [5] was 0.0028 µM and the drug sensitivity score [6] was 1.5. The drug sensitivity score [7] was 2.8.

`Cc1nc(Nc2n[nH]c3c2CN(C(=O)N[C@H](CN(C)C)c2ccccc2)C3(C)C)c2sccc2n1` showed a drug sensitivity score [1] of 27.5, a drug sensitivity score [2] of 28.2 and a TC50 cytotoxicity [8] of over 10 µM. It also gave an EC50 viability [4] of 0.0215 µM, an EC50 viability [5] of 0.021 µM and a drug sensitivity score [6] of 1.8. For the same compound, the drug sensitivity score [7] was 2.1.

`Cn1cc(-c2[nH]c3cc(NC(=O)[C@H](N)C4CCCCC4)cc4c3c2C=NNC4=O)cn1` gave a drug sensitivity score [1] of 8.8, a drug sensitivity score [2] of 9 and a TC50 cytotoxicity [3] of over 10 µM. The EC50 viability [4] was 0.812 µM, the EC50 viability [5] was 0.878 µM and the drug sensitivity score [6] was 2.7. It also gave a drug sensitivity score [7] of 1.

`CC/C(=C(\c1ccc(O)cc1)c1ccc(OCCN(C)C)cc1)c1ccccc1` [4-hydroxytamoxifen] showed a drug sensitivity score [1] of 10.6, a drug sensitivity score [2] of 5 and a TC50 cytotoxicity [8] of over 10 µM. The TC50 cytotoxicity [3] was over 10 µM, the EC50 viability [4] was 0.0088 µM and the drug sensitivity score [6] was 0. It also gave a drug sensitivity score [7] of 0.

In the case of `COc1ccc(S(=O)(=O)Nc2cccnc2Nc2ccc(O)cc2)cc1` [ABT-751], the drug sensitivity score [1] is reported as 14.4, the drug sensitivity score [2] is reported as 15.3 and the TC50 cytotoxicity [8] is reported as 1.07 µM. For the same compound, the EC50 viability [4] was 0.301 µM, the EC50 viability [5] was 0.269 µM and the drug sensitivity score [6] was 3.6. The drug sensitivity score [7] was 2.1.

`CC1CCC(n2c3cnccc3c3cnc(Nc4ccc5c(n4)CCN(C(=O)CO)C5)nc32)CC1` (stereo not given) [AMG-925] showed a drug sensitivity score [1] of 0.5, a drug sensitivity score [2] of 3.2 and an EC50 viability [4] of over 1 µM. The EC50 viability [5] was 0.0997 µM.

For `Cc1sc2c(c1C)C(c1ccc(Cl)cc1)=N[C@@H](CC(=O)Nc1ccc(OCCOCCOCCOCCNc3cccc4c3C(=O)N(C3CCC(=O)NC3=O)C4=O)cc1)c1nnc(C)n1-2` (stereo not given in full) [ARV-825], the drug sensitivity score [1] was 5, the drug sensitivity score [2] was 9.1 and the TC50 cytotoxicity [8] was over 0.3 µM. For the same compound, the EC50 viability [4] was 0.0365 µM, the EC50 viability [5] was 0.0129 µM and the drug sensitivity score [6] was 1.1. The drug sensitivity score [7] was 4.

With `Cc1[nH]nc(C(F)(F)F)c1Cc1sc2c(c1C(=O)N1C[C@](C)(O)CO1)c(=O)n(C)c(=O)n2C(C)C` [AZD3965] the drug sensitivity score [1] was 3.5, the drug sensitivity score [2] was 2.3 and the EC50 viability [4] was 0.0926 µM. It also gave an EC50 viability [5] of over 1 µM.

For `Cn1ncc(Cl)c1-c1cc(C(=O)N[C@H](CN)Cc2cccc(F)c2)sc1Cl` [Afuresertib], the drug sensitivity score [1] was 0.6, the drug sensitivity score [2] was 1 and the TC50 cytotoxicity [8] was over 1 µM. The TC50 cytotoxicity [3] was over 1 µM, the EC50 viability [4] was over 1 µM and the drug sensitivity score [6] was 0. It also gave a drug sensitivity score [7] of 0.

`Cc1nc(NC(=O)N2CCC[C@H]2C(N)=O)sc1-c1ccnc(C(C)(C)C(F)(F)F)c1` [Alpelisib] gave a drug sensitivity score [1] of 0.3, a drug sensitivity score [2] of 2.4 and a TC50 cytotoxicity [8] of over 2.5 µM. For the same compound, the TC50 cytotoxicity [3] was over 2.5 µM, the EC50 viability [4] was over 2.5 µM and the drug sensitivity score [6] was 0. The drug sensitivity score [7] was 0.

With `CO[C@H]1C(=O)[C@]2(C)[C@@H](OC)C[C@H]3OC[C@@]3(OC(C)=O)[C@H]2[C@H](OC(=O)c2ccccc2)[C@]2(O)C[C@H](OC(=O)[C@H](O)[C@@H](NC(=O)OC(C)(C)C)c3ccccc3)C(C)=C1C2(C)C` [Cabazitaxel] the drug sensitivity score [1] was 25.7, the drug sensitivity score [2] was 27.1 and the TC50 cytotoxicity [8] was over 1 µM. For the same compound, the EC50 viability [4] was 0.0016 µM, the EC50 viability [5] was 0.0015 µM and the drug sensitivity score [6] was 0.3. It also gave a drug sensitivity score [7] of 6.6.

`N.N.[Cl][Pt][Cl]` [Cisplatin] gave a drug sensitivity score [1] of 4.8, a drug sensitivity score [2] of 5.2 and an EC50 viability [4] of 30.6 µM. For the same compound, the EC50 viability [5] was 27.9 µM, the drug sensitivity score [6] was 1.2 and the drug sensitivity score [7] was 1.4.

For `CCN(CC)CCOc1ccc(/C(=C(/Cl)c2ccccc2)c2ccccc2)cc1` [Clomifene], the drug sensitivity score [1] was 7.8, the drug sensitivity score [2] was 5.4 and the EC50 viability [4] was 1.84 µM. It also gave an EC50 viability [5] of 3.08 µM.

For `Cc1c2oc3c(C)ccc(C(=O)N[C@@H]4C(=O)N[C@H](C(C)C)C(=O)N5CCC[C@H]5C(=O)N(C)CC(=O)N(C)[C@@H](C(C)C)C(=O)O[C@@H]4C)c3nc-2c(C(=O)N[C@@H]2C(=O)N[C@H](C(C)C)C(=O)N3CCC[C@H]3C(=O)N(C)CC(=O)N(C)[C@@H](C(C)C)C(=O)O[C@@H]2C)c(N)c1=O` [Dactinomycin], the drug sensitivity score [1] was 31.3, the drug sensitivity score [2] was 24.8 and the TC50 cytotoxicity [8] was over 1 µM. For the same compound, the EC50 viability [4] was 0.0013 µM, the EC50 viability [5] was 0.0067 µM and the drug sensitivity score [6] was 0. For the same compound, the drug sensitivity score [7] was 1.4.

`COc1cccc2c1C(=O)c1c(O)c3c(c(O)c1C2=O)C[C@@](O)(C(C)=O)C[C@@H]3O[C@H]1C[C@H](N)[C@H](O)[C@H](C)O1` [Daunorubicin] gave a drug sensitivity score [1] of 7.2, a drug sensitivity score [2] of 8.3 and an EC50 viability [4] of 0.165 µM. For the same compound, the EC50 viability [5] was 0.156 µM.

With `CC(=O)O[C@@]12CO[C@@H]1C[C@H](O)[C@@]1(C)C(=O)[C@H](O)C3=C(C)[C@@H](OC(=O)[C@H](O)[C@@H](NC(=O)OC(C)(C)C)c4ccccc4)C[C@@](O)([C@@H](OC(=O)c4ccccc4)[C@H]21)C3(C)C` [Docetaxel] the drug sensitivity score [1] was 26.6, the drug sensitivity score [2] was 25.2 and the EC50 viability [4] was 0.0021 µM. The EC50 viability [5] was 0.0034 µM, the drug sensitivity score [6] was 6.6 and the drug sensitivity score [7] was 6.8.

Work on `CN1CCN(c2ccc3nc(-c4c(N)c5c(F)cccc5[nH]c4=O)[nH]c3c2)CC1` [Dovitinib] yielded a drug sensitivity score [1] of 0, a drug sensitivity score [2] of 1.6 and an EC50 viability [4] of over 10 µM. The EC50 viability [5] was over 10 µM.

`Cc1cc(Nc2cc(N3CCN(C)CC3)nc(/C=C/c3ccccc3)n2)n[nH]1` [ENMD-2076] showed a drug sensitivity score [1] of 11.3, a drug sensitivity score [2] of 11.4 and a TC50 cytotoxicity [3] of over 10 µM. For the same compound, the EC50 viability [4] was 0.638 µM, the EC50 viability [5] was 0.576 µM and the drug sensitivity score [6] was 4.4. It also gave a drug sensitivity score [7] of 1.4.

With `COc1cc([C@@H]2c3cc4c(cc3[C@@H](O[C@@H]3O[C@@H]5CO[C@@H](C)O[C@H]5[C@H](O)[C@H]3O)[C@H]3COC(=O)[C@H]23)OCO4)cc(OC)c1O` [Etoposide] the drug sensitivity score [1] was 6.3, the drug sensitivity score [2] was 8.5 and the TC50 cytotoxicity [8] was over 10 µM. It also gave an EC50 viability [4] of 0.936 µM, an EC50 viability [5] of 1.09 µM and a drug sensitivity score [6] of 1.8. For the same compound, the drug sensitivity score [7] was 2.7.
